The values below come from paper PMC10547636 (Pharmaceutical Research, 2023).

Data set [1] is described as follows: Population pharmacokinetic analysis (NONMEM) of intravenous PCM and its metabolites in plasma and urine of preterm neonates born below 32 weeks of gestation. The data set is classed as in vivo. The conditions noted are these: for fVG / fVS / fVO, distribution volume of metabolite as fraction of VP of PCM: V = fV×VP. The procedure: Two datasets were pooled in this study. […] The second dataset consisted of data from 83 neonates born before 32 weeks of gestation who were included in the Drug dosage Improvement in Neonates (DINO) study between September 2014 and July 2017. This study was conducted in four Dutch Neonatal Intensive Care Units. The Erasmus Medical Center ethics review board approved the protocols, and written informed consent from parents/legal guardians was obtained before study initiation (NL47409.078.14, MEC-2014-067, NCT02421068). […] The actual urine collection interval and volume varied and were recorded. Plasma samples of all patients were available. […] In dataset 2, the dosing schedule was based on current weight according to Wang et al. […] The dosing regimen could be adapted in individual patients by the treating physician. […] No urine samples were collected. […] For those BLOQ samples, the values obtained with the assay were still reported and these were used in the PopPK analysis. […] Processing and visualization of output from NONMEM were performed in R 4.2.3 (CRAN.R-project.org). Parameters were estimated using the first-order conditional estimation with interaction (FOCE + I) method. […] Parameter precision was obtained with the R covariance matrix. […] The stochastic model included interindividual variability (IIV) and residual variability (RUV). […] SD assumes that the standard deviation of the residual error is the sum of the additive and proportional components. Separate SD1 and SD2 values were tested for each dataset, compound and for plasma and urine samples. […] In those cases, linear interpolation was used for current weight between two existing current weight measurements of the particular patient. For implementation of continuous covariates (birthweight, current weight, GA, PNA, PMA, birthweight Z-score), linear, power, exponential, and sigmoidal functions were tested. For categorical covariates (gender, SGA), additive shift models were tested. Covariates were evaluated based on OFV by a stepwise forward inclusion (ΔOFV > 6.64, P < 0.01) and backward deletion (ΔOFV < 10.83, P > 0.001) process. Besides this, goodness of fit plots split for datasets and covariate quartiles, plots of individual eta-values versus covariate values (ETA plots), and reduction in inter-individual variability on the parameter of interest, were evaluated. A bootstrap analysis (n = 500) stratified on dataset, was performed to assess the robustness of the final model and parameter estimates. […] The NPDEs of urine samples were plotted together due to a limited number of samples per compound. […] This was done to illustrate the concentration-time profiles of each compound under the current practice of linear bodyweight-based dosing. […] In these simulations, the growth curves published by Anchieta et al.

For data set [2] the following is noted: adults; ref [3], [4]; cited from earlier work.

In the case of `CC(=O)Nc1ccc(O)cc1` [PCM, paracetamol], in data set [1] (PNA in days, bootstrap estimate (95% CI)), the “θPNA50, PNA at which RFS reaches half of RFS0, bootstrap” value is listed as 8.71 (4.55–15.6). For the same compound, the “θPNA50, PNA at which RFS reaches half of RFS0” value in data set [1] (PNA in days, final model estimate (RSE %)) was 9.18 (23). For the same compound, the “non-linear formation of CYP2E1 pathway metabolites (PCM-cysteine and PCM-mercapturate)” value in data set [1] (among the dosages given in this study) is “could not identify this non-linearity”. The “predicted difference in glucuronidation of PCM with PNA” value in data set [1] (between day 1 and day 30) is listed as “sixfold”. Besides, in data set [1] (bootstrap estimate (95% CI)), the “θBWb, power exponent of birthweight (BWb/985) on RFG, bootstrap” value is reported as 0.487 (0.137–0.917) and the “θBWc, power exponent of current weight (BWc/1012) on VP, bootstrap” value is given as 0.844 (0.659–1.05). Besides, the “VPP, distribution volume of the peripheral compartment, bootstrap” value in data set [1] (bootstrap estimate (95% CI), in L) is given as 0.247 (0.167–0.348). In addition, the “TVVP, typical distribution volume of the central compartment (VP), bootstrap” value in data set [1] (current weight 1012 g, bootstrap estimate (95% CI)) is on record as 0.955 (0.775–1.030) L. The “TVVP, typical distribution volume of the central compartment (VP)” value in data set [1] (current weight 1012 g, final model estimate (RSE %)) was 0.955 (3) L. Besides, in data set [1] (final model estimate (RSE %)), the “θBWb, power exponent of birthweight (BWb/985) on RFG” value was 0.479 (45) and the “θBWc, power exponent of current weight (BWc/1012) on VP” value is 0.836 (11). Moreover, the “VPP, distribution volume of the peripheral compartment” value in data set [1] (final model estimate (RSE %), in L) is reported as 0.244 (12). The “contribution of glucuronidation to elimination in neonates” value in data set [1] (preterm neonates of this study) is 5–15%. In data set [2], the “fraction of PCM metabolized into sulphate conjugate” value is ~30%, the “fraction of administered PCM excreted unchanged in the urine” value is recorded as 2–5% and the “fraction of administered dose metabolized via the oxidative route (NAPQI)” value was 8–10%.

For the compound `CC(=O)Nc1ccc(O[C@@H]2O[C@H](C(=O)O)[C@@H](O)[C@H](O)[C@H]2O)cc1` [PCM-glucuronide, paracetamol-glucuronide], the “fVG / fVS / fVO, distribution volume of metabolite as fraction of VP of PCM” value in data set [1] (final model estimate (RSE %)) is 0.6 (9). In addition, the “TVCLrG / TVCLrS / TVCLrO, typical renal clearance of metabolite, bootstrap” value in data set [1] (birthweight 985 g, PNA 5 days, bootstrap estimate (95% CI)) is 0.0428 (0.0383–0.0482) L/h. In addition, in data set [1] (birthweight 985 g, PNA 5 days, final model estimate (RSE %)), the “TVCLrG / TVCLrS / TVCLrO, typical renal clearance of metabolite” value is 0.0425 (5) L/h. In data set [1] (bootstrap estimate (95% CI)), the “fVG / fVS / fVO, distribution volume of metabolite as fraction of VP of PCM, bootstrap” value is on record as 0.6 (0.5–0.8).

In the case of `CC(=O)Nc1ccc(OS(=O)(=O)O)cc1` [PCM-sulfate, paracetamol-sulfate], the “fVG / fVS / fVO, distribution volume of metabolite as fraction of VP of PCM” value in data set [1] (final model estimate (RSE %)) is 0.326 (4). For the same compound, in data set [1] (bootstrap estimate (95% CI)), the “fVG / fVS / fVO, distribution volume of metabolite as fraction of VP of PCM, bootstrap” value is 0.330 (0.300–0.417).
